Test results from a melting point compilation (Tetko et al.; mined from patent text by program, amines drawn as free bases though some values may be those of a salt).

SMILES | melting point
COC(=O)[C@H](c1ccccc1Cl)N1CCc2sc(OC(C)=O)cc2C1 | 73 to 75 °C
CC(C)(C)OC(=O)N1CCC(OCc2ccccc2)C1CC(=O)Cn1cnc2ccncc2c1=O (configuration not stated) | 221 °C
Cc1noc(C)c1NC(=O)c1ccc(OC(F)F)c2oc(C3CCOC3)cc12 (configuration not stated) | 156 °C
O=C(Cc1ccccc1)N1CCC2(Cc3ccccc3O2)C1 (configuration not stated) | 98 to 99 °C
C[C@H](NS(=O)(=O)c1ccc2c(c1)Sc1ccccc1O2)C(=O)O | 75 to 85 °C
CC(C)CCC(O)C(CC1CCCCC1)NC(=O)C(Cc1c[nH]cn1)N(C)C(=O)C(Cc1ccccc1)OC(=O)N(C)CCC(=O)N1CCOCC1 (configuration not stated) | 80 to 87 °C
CCOC(=O)C1CC(=O)c2c(OC)ccc(OC)c2C1 (configuration not stated) | 96 to 98 °C
CCOCCOC(=O)c1nc2ccc(COc3cccc(OCc4ccc5ccccc5n4)c3)cc2o1 | 84 to 85 °C
CC(=O)N[C@@H]1CN(C(=O)c2nn(C)c3ccccc23)C[C@@H]1C (relative stereo) | 202 to 204 °C
CC(C)N(CCn1c(CO)nc2c(N)nc3ccccc3c21)C(N)=O | > 240 °C
Cc1cc(S(N)(=O)=O)cs1 | 102 to 104 °C
O=C(C1=Cc2ccccc2C1)c1ccc(OC(F)(F)F)cc1 | 115 to 117 °C
COc1cc2c(cc1OC)C(c1cccc(C(F)(F)F)c1)=NN=C(C)C2 | 134 to 135 °C
CC1(CO)Cc2nnc(-c3ccc(-c4ccccc4)cc3Cl)n2CCS1 (configuration not stated) | 166 to 169 °C
COC(=O)C(C(=O)OC)c1cccc2c1NC(=O)C2=O | 137 to 140 °C
CCOC(=O)c1c(C(=O)OCC)c(-c2ccc3c(c2)OCO3)c2c3c(ccc2c1O)OCO3 | 192 to 194 °C
O=C1CNc2cc(Br)c(F)cc2N1 | 214 to 216 °C
CC1(C)C=C(c2ccccn2)c2cc(C#N)ccc2OC1 | 155 to 157 °C
Nc1nc(F)c(C(F)(F)F)cc1Cl | 101 to 103 °C
O=c1[nH]c2sccc2c(=O)o1 | 233 °C
CCO[C@@H](Cc1ccc(OCCc2nc(-c3ccc(-c4ccccc4)cc3)oc2C)c2ccccc12)C(=O)O | 140 to 145 °C
CC(C)(C(=O)O)c1cn2nc(NCCCN3CCC(OC(c4ccccc4)c4ccccc4)CC3)ccc2n1 | 205 to 206 °C
COc1cc2c(cc1OC)-c1c(OC)c(OC)cc3c1C(C2)N(C)CC3O (single isomer, unassigned; (+)) | 180 to 182 °C
Nc1cc2[nH]c(=O)oc2cc1N | > 360 °C
CCC(C(OC)OC)N(C1CCCCC1)C1CCCCC1 (configuration not stated) | 73.5 to 74.2 °C
O=CC1=CCC(F)(C2COC(c3c(F)cccc3F)=N2)C=C1 (configuration not stated) | 105 to 106 °C

SMILES | melting point
CCN1c2nc(Cl)ccc2NC(=O)c2cc(CCc3cccc(NS(C)(=O)=O)c3)cnc21 | 131 to 132 °C
O=[N+]([O-])c1cccc(-c2ccc3[nH]c(=S)n(Cc4ccccc4)c3c2)c1 | 244 to 245 °C
CCCCc1nc2sc(C(=O)O)cc2n1Cc1ccc(-c2ccccc2C(=O)O)cc1 | 264 °C
Oc1cc2c(cc1CCCCc1ccccc1)OC(CCc1ccccc1)C2 (configuration not stated) | 50 to 53 °C
Clc1ccc(Nc2nnc(Cc3ccncc3)c3cnccc23)cc1 | 227 to 228 °C
CC(=O)n1ccc2c1CCn1ccnc1C2=C1CCN(C)CC1 | 198 °C
c1nc(SC2CCCCC2)c2cc[nH]c2n1 | 162 to 163 °C
Cn1cc(C(N)=O)c(Nc2ccc(Cl)c(Cl)c2)cc1=O | > 250 °C
CC=CCn1c(C)c(C)c2cnnc(OCc3c(F)cccc3F)c21 | 85 to 94 °C
CNc1nc(NS(=O)(=O)c2ccc(N)cc2)cc(N(C)C)n1 | > 300 °C
CN(C)c1ccc(-c2ccc3c(c2)CC[C@H]2N(C)C(=O)CC[C@]32C)cc1 | 197 to 202 °C
Oc1ccc2c(c1)C13CCCCC1N(C2)N(CC1CC1)CC3 (single isomer, unassigned; (+)) | 151 to 153 °C
O=[N+]([O-])c1cccnc1NCC(O)CO (configuration not stated) | 95.5 to 98 °C
CC1(C)C(=O)N(c2ccc(C#N)c(C(F)(F)F)c2)C(=S)N1CCF | 135 °C
CC1=NN(c2c(Cl)cc(Cl)cc2Cl)C(=O)C1 | 178 to 180 °C
CCOC(=O)C1(C(N)=O)OCCO1 | 99 to 100 °C
CCCCn1cnnc1SCC(=O)c1ccc(OC)cc1 | 79 to 82 °C
CC(C)C(=O)c1ccc(N2CCOCC2)cc1 | 75 to 77 °C
C[C@H]1CCCC(C)(C)[C@@H]1[C@H](O)c1ccc(F)cc1 | 55 to 57 °C
CON1C(=O)CC2(CCN(C(=O)OCCBr)CC2)C1=O | 134 °C
CCC1(C)CC2(NC(=O)N(c3ccccc3)C2=O)C(C)C(C)(CC)N1 (configuration not stated) | 150 to 153 °C
Cc1cccc(NC(=O)NCC(=O)N(CC(=O)OC(C)(C)C)c2cccc(OC(F)(F)F)c2)c1 | 125 °C
CCOC(=O)c1[nH]c(C)c(CC)c1CC | 76 to 77 °C
COCc1c(CO)ncc2[nH]c3cccc(Cc4ccc(Cl)cc4)c3c12 | 220 to 222 °C
CCOC(=O)c1cc(-c2ccc(OCCO[Si](C)(C)C(C)(C)C)cc2)n(-c2ccc(OC)cc2)n1 | 86 to 87 °C
CCC(C(=O)c1ccc(Cl)cc1)n1ncn(-c2ccc(N3CCN(c4nc5ccccc5s4)CC3)cc2)c1=O (configuration not stated) | 162 °C

SMILES | melting point
OCCc1ccc2cc(Br)ccc2n1 | 103 to 104 °C
CN1CCC23c4cccc(O)c4OC2C2CCC3(CC2)C1 (configuration not stated) | 174 to 176 °C
O=c1[nH]c2cccc(F)c2c(=O)n1CCCN1CC=C(c2ccc(Cl)cc2)CC1 | 201 to 202 °C
CN(C)[C@@H]1Cc2c(O)cccc2C[C@H]1O (relative stereo) | 179 to 183 °C
COc1cc(Nc2c(C#N)cnc3cc(I)c(OC)cc23)c(Cl)cc1Cl | 253 to 254 °C
CCCCc1c(C(=O)c2ccc(O)cc2)[nH]c2ccc([N+](=O)[O-])cc12 | 181 °C
CCn1cncc1/C=C/c1cn(-c2ccccc2)nc1OCc1ccc(OCc2nc(-c3ccco3)oc2C)c(OC)c1 | 130 to 132 °C
Cc1ccc([N+](=O)[O-])cc1S(=O)(=O)N(C)C | 72 to 74 °C
Cc1nn(C(=O)NC(C)(C)CCc2ccccc2Cl)c(=O)n1N | 102 °C
CCCCc1ncc(/C=C(\Cc2cccs2)C(=O)O)n1Cc1ccc(C#N)cc1 | 190 to 192 °C
COC1(C(=O)Cc2ccc(-c3ccc(O)cc3)cc2)C=CC(Cl)=CC1N (configuration not stated) | 165 to 168 °C
Fc1ccc(Nc2c3ccccc3nc3ccccc23)cc1 | 184 to 196 °C
CN(c1ccc(C(C(F)(F)Cl)C(F)(F)Cl)cc1)S(C)(=O)=O | 140 to 142 °C
CCc1ccc2c(c1)C=Cc1cc(CC)ccc1C2c1cn(Cc2nc(C(=O)O)cs2)c(=O)[nH]c1=S | 162 to 165 °C
CCC(C(C)=CC(CNC(=O)c1ccc(N)nc1)=NO)[N+](=O)[O-] (configuration not stated) | 190 to 191 °C
Cc1noc2cc3c(cc12)C1(CO3)C(=O)N(CCC(C)C)c2ccccc21 (configuration not stated) | 135 to 138 °C
CCCc1c(OCc2ccc(C(=O)NCCCCc3cccnc3)c(OCC)c2)ccc(C(C)=O)c1O | 92 to 93 °C
CC(=O)Oc1ccc(Nc2nc(N)ncc2Oc2ccc(Cl)cc2)cc1 | 132 to 133 °C
CCOC(=O)COc1cccc(N)c1 | 162 to 164 °C
CCCn1c(=O)c2c(NC)n[nH]c2n(Cc2ccccc2Cl)c1=O | > 300 °C
COC(=O)Cn1c(Cc2ccccc2)ccc(N)c1=O | 134 to 136 °C
Nc1cc(OCc2cccc(Cl)c2)c(C(=O)NC2CN3CCC2CC3)cc1Cl (configuration not stated) | 168 to 169 °C
Nc1nn(Cc2ccccc2)c2nc3n(c(=O)c12)CCS3 | 233 to 236 °C
C=CCc1ccc2oc(C(=O)O)cc(=O)c2c1O | 222 to 224 °C
CC(C)(CO)c1ccc(C#N)cc1 | 70 to 82 °C
O=C(O)c1ccc(F)cc1NS(=O)(=O)c1ccccc1 | 158 to 159 °C

SMILES | melting point
N=C(N)c1sccc1-c1ccc(CN2CCSC2)cc1 | 162 to 164 °C
Nc1ccc(N2C(=O)c3ccc(Cl)cc3C2=O)c(Cl)c1 | 198 to 201 °C
CCOC(=O)CC(=O)c1cc(F)c(S(=O)(=O)c2ccccc2)nc1Nc1ccc(F)cc1F | 140 to 141 °C
CCCc1c(COc2ccc(Cc3nnn(CCCCCCc4nnn[nH]4)n3)cc2)ccc(C(C)=O)c1O | 110 to 113 °C
NCc1cccc(OCCSc2nc[nH]n2)c1 | > 300 °C
CCOc1ncc(C(C)=O)cc1C(=O)Nc1c(C(N)=O)nn(C2CN(C(=O)OC(C)(C)C)C2)c1CC | 220 to 223 °C
O=C(O)CC(=Cc1ccccc1)C(=O)O | 114 °C
CC(=O)N1CCN(CCOC2c3ccccc3C(=O)N2c2ccc3ccc(Cl)nc3n2)CC1 (configuration not stated) | 172 °C
CSC(=N[N+](=O)[O-])NCc1ccccc1 | 77 to 80 °C
COc1ccc(CNn2c(=O)ccc3cnc(S(C)(=O)=O)nc32)cc1Cl | 212 to 214 °C
NC(=O)Oc1ccccc1CCCCC#CCSCC#CCCCCc1ccccc1OC(N)=O | 63 °C
O=c1c(Br)c(OCc2ccc(Cl)cc2F)cnn1-c1ccc(Cl)c(Cl)c1 | 172 to 173 °C
O=C(O)CCCCCCCCCSc1ccccc1O | 58 to 59 °C
CC(C)(C)NC(=O)[C@@H]1CCCN1C(=O)[C@@H](O)[C@@H](N)Cc1ccccc1 | 159 to 161 °C
O=C1NC(=O)C(=Cc2ccc(OCCN3CCN(c4ccccn4)CC3)cc2)S1 | 158 to 160 °C
COC(=O)CCCc1cc2cc(Cl)ccc2n1S(=O)(=O)c1c(C)nn(C)c1C | 125 to 127 °C
Cc1sc(N)c(C(=O)c2ccsc2)c1C | 122 to 123 °C
COc1cc2nc(O)nc(O)c2c(OC)c1OC | > 250 °C
CS(=O)c1csc(NC(=O)c2ccccc2O)n1 (configuration not stated) | 240 °C
CCc1c(C)nc2c(O)cccn2c1=O | 128 °C
COc1cc(OC)nc(Oc2cccnc2C=O)n1 | 76 °C
CCCCc1nc(Cl)c(CO)n1Cc1ccc(-c2nc3ccccn3c2C(=O)O)cc1 | 173 to 175 °C
CCN(CC)CCNC(=O)c1nc(Cl)c(NCCN(CC)CC)nc1OC | 112 °C
ClCc1coc(/C=C/c2ccccc2)n1 | 72 to 73 °C
